Measurements reported in patent US20050228038A1, “11-Beta hydroxysteroid dehydrogenase type 1 inhibitors as anti-obesity/anti-diabetes compounds and 17-beta hydrosteroid dehydrogenase type I inhibitors as useful agents for the treatment of cancers, especially breast cancer” (priority 2004, published 2005).

Molecular target: T1, 17betaHSD1 (Homo sapiens, UniProt P14061)
T1 sequence (P14061 1-328): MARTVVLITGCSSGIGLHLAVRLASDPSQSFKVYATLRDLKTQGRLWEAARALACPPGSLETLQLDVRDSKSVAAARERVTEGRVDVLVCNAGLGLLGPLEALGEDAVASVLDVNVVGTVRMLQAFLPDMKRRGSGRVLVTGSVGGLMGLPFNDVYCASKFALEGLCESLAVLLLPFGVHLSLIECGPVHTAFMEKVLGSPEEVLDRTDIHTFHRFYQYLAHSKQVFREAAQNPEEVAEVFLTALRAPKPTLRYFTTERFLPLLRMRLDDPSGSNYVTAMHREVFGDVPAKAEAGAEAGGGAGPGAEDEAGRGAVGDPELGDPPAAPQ
Assay: screen of gossypol related compounds against 17betaHSD1 (enzyme activity)
Type: biochemical
Conditions: for Ki: read-out: inhibition constant
Protocol: Seven gossypol related compounds were screened against 17betaHSD1. […] Four gossypol derivatives, in which the aldehyde functional group is modified, were tested. The peri-acylated nitrites, gossylic nitrile diacetate and gossylic nitrile divalerate, represent compounds in which the aldehyde group is [drawing 13] converted to a nitrile, and the peri hydroxyl of gossypol is derivatized.
Gossylic iminolactone and gossylic lactone were the most promising compounds, producing 80-90% reduction in enzyme activity. The inhibition constants for gossylic lactone and gossylic iminolactone were determined to be 2.2 and 4.3 uM respectively.

Row | SMILES | Ki | also measured
1 | CCCCC(=O)Oc1c(-c2c(C)cc3c(C(C)C)c(O)c(O)c(C#N)c3c2OC(=O)CCCC)c(C)cc2c(C(C)C)c(O)c(O)c(C#N)c12 [gossylic nitrile divalerate] |  | reduction in enzyme activity (in words) (concentrations not given): no reduction
2 | Cc1cc2c(C(C)C)c(O)c(O)c3c2c(c1-c1c(C)cc2c(C(C)C)c(O)c(O)c4c2c1OC4=N)OC3=N [Gossylic iminolactone, gossylic iminolactone] | 4.3 µM | 
3 | CC(=O)Oc1c(-c2c(C)cc3c(C(C)C)c(O)c(O)c(C#N)c3c2OC(C)=O)c(C)cc2c(C(C)C)c(O)c(O)c(C#N)c12 [Gossylic nitrile diacetate, gossylic nitrile diacetate] |  | reduction in enzyme activity (concentrations not given): 13%
4 | Cc1cc2c(C(C)C)c(O)c(O)c3c2c(c1-c1c(C)cc2c(C(C)C)c(O)c(O)c4c2c1OC4=O)OC3=O [gossylic lactone] | 2.2 µM | 
